Test results reported in US20250188082A1, “Use of Hypoxanthine Compound In Preparation of Drug For Treating Pulmonary Fibrosis” (Sichuan Yiasuo Pharmaceutical Technology Co., Ltd., priority 2022, published 2025).

How the values were obtained:
Type in all cases: in vivo, C57BL/6 mice
[1] = test system: influenza A virus-induced pulmonary fibrosis model (FM1 strain of influenza A (H1N1) virus); assay: Influenza A virus-induced pulmonary fibrosis model; details: 120 mg/kg/d intragastric, 14 days; for Ashcroft scores: influenza A virus + bleomycin, lung tissue HE; for IL-1β / IL-6 / NF-κB / TNF-α: serum, influenza A (H1N1) FM1 + bleomycin, from two weeks after model
Source text: Experimental method: an in-vivo influenza A virus-induced pulmonary fibrosis model was established: C57BL/6 mice (with weights being 22-25 g) were randomly and evenly divided into a plurality of groups, including blank control group, model group, Nintedanib positive control group, hypoxanthine analogue A group, hypoxanthine analogue B group, hypoxanthine analogue C group, compound 1 group, compound 2 group . . . compound 12 group, with 9 mice in each group. On Day 1, the mice in blank control group were instilled with normal saline nasally, and the mice in other groups were all infected with a FM1 strain of an influenza A (H1N1) virus 30 (μL) through nasal instillation. On Day 2, the mice received 5 mg/kg bleomycin through tracheas to induce their pulmonary fibrosis. After the model was established for two weeks, the mice in each group were intragastrically administrated for intervention for consecutive 14 days; the mice in blank control group and model group intragastrically received the same dosage of the normal saline as those in drug groups; the mice in Nintedanib positive control group received Nintedanib (120 mg/kg); the mice in hypoxanthine analogue A group, hypoxanthine analogue B group and hypoxanthine analogue C group respectively received hypoxanthine analogue A (120 mg/kg/d), hypoxanthine analogue B (120 mg/kg/d) and hypoxanthine analogue C (120 mg/kg/d); and the mice in compound 1 group, compound 2 group . . . compound 12 group respectively received compound 1 (120 mg/kg/d), compound 2 (120 mg/kg/d) . . . compound 12 (120 mg/kg/d) prepared in example 1. After administration for consecutive 14 days, the mice were observed every day, and their weights and death conditions were recorded. After administration, blood was taken from eyeballs for immediately detecting the expression levels of NF-κB, TNF-α, IL-1 and IL-6 in serum, and lung tissues were taken for HE detection and Ashcroft scoring.

[2] = test system: novel coronavirus-induced pulmonary fibrosis model (COVID-19 novel coronavirus strains); assay: Novel coronavirus-induced pulmonary fibrosis model; details: 120 mg/kg/d intragastric, 14 days; for Ashcroft scores: novel coronavirus + bleomycin, lung tissue HE; for IL-1β / IL-6 / NF-κB / TNF-α: serum, COVID-19 novel coronavirus + bleomycin, from two weeks after model
Source text: Experimental method: an in-vivo novel coronavirus-induced pulmonary fibrosis model was established: C57BL/6 mice (with weights being 22-25 g) were randomly and evenly divided into a plurality of groups, including blank control group, model group, Nintedanib positive control group, hypoxanthine analogue A group, hypoxanthine analogue B group, hypoxanthine analogue C group, compound 1 group, a compound 2 group . . . compound 12 group, with 9 mice in each group. On Day 1, the mice in blank control group were instilled with normal saline nasally, and the mice in other groups were all infected with COVID-19 novel coronavirus strains (30 μL) through nasal instillation. On Day 2, the mice received 5 mg/kg bleomycin through tracheas to induce their pulmonary fibrosis. After the model was established for two weeks, the mice in each group were intragastrically administrated for intervention for consecutive 14 days; the mice in blank control group and model group intragastrically received the same dosage of normal saline as those in drug groups; the mice in Nintedanib positive control group received Nintedanib (120 mg/kg); the mice in hypoxanthine analogue A group, hypoxanthine analogue B group and hypoxanthine analogue C group respectively received hypoxanthine analogue A (120 mg/kg/d), hypoxanthine analogue B (120 mg/kg/d) and hypoxanthine analogue C (120 mg/kg/d); and the mice in compound 1 group, compound 2 group . . . compound 12 group respectively received compound 1 (120 mg/kg/d), compound 2 (120 mg/kg/d) . . . compound 12 (120 mg/kg/d) prepared in example 1. After administration for consecutive 14 days, the mice were observed every day, and their weights and death conditions were recorded. After administration, blood was taken from eyeballs for immediately detecting the expression levels of NF-κB, TNF-α, IL-1 and IL-6 in serum, and lung tissues were taken for HE detection and Ashcroft scoring.

[3] = test system: bleomycin-induced pulmonary fibrosis model; assay: Early pulmonary fibrosis: bleomycin-induced model, dosing from one week after modelling; details: for Leucocyte / Lymphocyte / Neutrophil / Ashcroft scores: early pulmonary fibrosis, 120 mg/kg/d intragastric, 14 days, from one week after model; for Leucocyte / Lymphocyte / Neutrophil: blood, Day 15, twice every day; for Ashcroft scores: lung tissue HE staining; for inhibition (anti-inflammatory) effect on leucocytes, neutrophils and lymphocytes in blood: mice with early pulmonary fibrosis, result in words
[4] = test system: bleomycin-induced pulmonary fibrosis model; assay: Comparison with comparative drugs: bleomycin-induced model, hydroxyproline and TGF-β; details: 120 mg/kg/d intragastric, twice every day, 14 days, from two weeks after model; Day 15
[5] = test system: Streptococcus pneumoniae-induced pulmonary fibrosis model; assay: Streptococcus pneumoniae-induced pulmonary fibrosis model; details: for Leucocyte / Lymphocyte / Neutrophil / Ashcroft scores: Streptococcus pneumoniae + bleomycin, 120 mg/kg/d intragastric, 14 days; for Leucocyte / Lymphocyte / Neutrophil: blood, Day 15, 3 times every day, from one week after model; for Ashcroft scores: lung tissue HE staining; for inhibition (anti-inflammatory) effect on leucocytes, neutrophils and lymphocytes in blood: mice with Streptococcus pneumoniae-induced pulmonary fibrosis, result in words
[6] = test system: influenza B virus-induced pulmonary fibrosis model (influenza B (H7N9) virus); details: 120 mg/kg/d intragastric, 14 days; for Ashcroft scores: influenza B virus + bleomycin, lung tissue HE; for IL-1β / NF-κB / TNF-α / IL-6: serum, from two weeks after model; for IL-1β / NF-κB / TNF-α: influenza B (H7N9) + bleomycin; for IL-6: influenza B + bleomycin

| Compound | Ashcroft scores [1] | IL-1β [1] [pg/mL] | IL-6 [1] [pg/mL] | NF-κB [1] [pg/mL] | TNF-α [1] [pg/mL] | Ashcroft scores [2] | IL-1β [2] [pg/mL] | IL-6 [2] [pg/mL] | NF-κB [2] [pg/mL] | TNF-α [2] [pg/mL] | Leucocyte [3] | Lymphocyte [3] | Neutrophil [3] | Ashcroft scores [3] | Hydroxyproline in bronchoalveolar lavage fluids [4] [µg/mg] | Hydroxyproline in lung tissues [4] [µg/mg] | TGF-β in bronchoalveolar lavage fluids [4] [µg/L] | TGF-β in lung tissues [4] [µg/L] | Leucocyte [5] | Lymphocyte [5] | further results |
| --- | --- | --- | --- | --- | --- | --- | --- | --- | --- | --- | --- | --- | --- | --- | --- | --- | --- | --- | --- | --- | --- |
| COC(=O)c1ccc2c(c1)NC(=O)/C2=C(\Nc1ccc(N(C)C(=O)CN2CCN(C)CC2)cc1)c1ccccc1 [Nintedanib, reference compound] | 4.27 | 220.7 | 349.1 | 625.2 | 243.6 | 6.04 | 561.2 | 523.7 | 732.7 | 539.8 | 33.76 10^9/L | 33.87 10^9/L | 31.32 10^9/L | 3.69 | 1.25 ± 0.14 | 2.36 ± 0.12 | 7.11 ± 0.24 | 75.32 ± 7.51 | 98.31 10^9/L | 87.43 10^9/L | inhibition (anti-inflammatory) effect on leucocytes, neutrophils and lymphocytes in blood [3]: obviously inferior; Neutrophil [5]: 78.94 10^9/L; Ashcroft scores [5]: 4.55; inhibition (anti-inflammatory) effect on leucocytes, neutrophils and lymphocytes in blood [5]: obviously inferior; Ashcroft scores [6]: 4.08; IL-1β [6]: 166.3 pg/mL; NF-κB [6]: 529.7 pg/mL; TNF-α [6]: 141.3 pg/mL; IL-6 [6]: 176.1 pg/mL |
| CC(C)n1cnc2c(=O)[nH]cnc21 [Compound 2] | 1.25 | 27.1 | 62.7 | 25.5 | 87.3 | 1.12 | 35.1 | 66.0 | 23.5 | 64.8 | 4.11 10^9/L | 5.19 10^9/L | 1.04 10^9/L | 1.01 | 0.74 ± 0.05 | 1.51 ± 0.08 | 4.02 ± 0.15 | 24.10 ± 2.14 | 5.48 10^9/L | 5.95 10^9/L | Neutrophil [5]: 1.83 10^9/L; Ashcroft scores [5]: 1.09; Ashcroft scores [6]: 1.09; IL-1β [6]: 26.6 pg/mL; NF-κB [6]: 29.5 pg/mL; TNF-α [6]: 72.6 pg/mL; IL-6 [6]: 65.4 pg/mL |
| CCC(=O)Oc1ncnc2c1ncn2C(C)C [Compound 12] | 1.31 | 29.9 | 64.7 | 28.1 | 90.8 | 1.18 | 38.9 | 66.8 | 27.3 | 68.4 | 4.21 10^9/L | 5.24 10^9/L | 1.18 10^9/L | 1.14 | 0.76 ± 0.08 | 1.41 ± 0.12 | 4.06 ± 0.15 | 23.91 ± 2.38 | 7.04 10^9/L | 7.23 10^9/L | Neutrophil [5]: 1.97 10^9/L; Ashcroft scores [5]: 1.39; Ashcroft scores [6]: 1.26; IL-1β [6]: 27.8 pg/mL; NF-κB [6]: 32.9 pg/mL; TNF-α [6]: 75.4 pg/mL; IL-6 [6]: 69.7 pg/mL |
| O=c1[nH]cnc2[nH]cnc12 [Hypoxanthine analogue A, reference compound] | 6.11 | 323.1 | 450.9 | 780.3 | 339.4 | 6.13 | 489.0 | 554.5 | 731.3 | 400.5 | 52.12 10^9/L | 49.53 10^9/L | 41.21 10^9/L | 5.00 | 1.46 ± 0.13 | 2.69 ± 0.12 | 9.23 ± 0.26 | 96.47 ± 8.25 | 155.12 10^9/L | 90.75 10^9/L | inhibition (anti-inflammatory) effect on leucocytes, neutrophils and lymphocytes in blood [3]: obviously inferior; Neutrophil [5]: 89.99 10^9/L; Ashcroft scores [5]: 6.12; inhibition (anti-inflammatory) effect on leucocytes, neutrophils and lymphocytes in blood [5]: obviously inferior; Ashcroft scores [6]: 6.26; IL-1β [6]: 239.9 pg/mL; NF-κB [6]: 630.5 pg/mL; TNF-α [6]: 191.3 pg/mL; IL-6 [6]: 194.8 pg/mL |
| CC(C)Oc1ncnc2c1N(C(C)C)CN2C(C)C [Compound 10] | 1.30 | 29.3 | 64.9 | 27.7 | 89.6 | 1.67 | 38.1 | 67.5 | 26.5 | 68.9 | 4.17 10^9/L | 5.27 10^9/L | 1.21 10^9/L | 1.17 | 0.74 ± 0.06 | 1.37 ± 0.08 | 4.21 ± 0.18 | 24.12 ± 2.25 | 7.01 10^9/L | 7.33 10^9/L | Neutrophil [5]: 1.99 10^9/L; Ashcroft scores [5]: 1.38; Ashcroft scores [6]: 1.25; IL-1β [6]: 27.8 pg/mL; NF-κB [6]: 31.2 pg/mL; TNF-α [6]: 74.7 pg/mL; IL-6 [6]: 65.5 pg/mL |
